The values that follow come from patent publication US20120214830A1, “BIOLOGICAL MARKERS PREDICTIVE OF ANTI-CANCER RESPONSE TO INSULIN-LIKE GROWTH FACTOR-1 RECEPTOR KINASE INHIBITORS IN HEPATOCELLULAR CARCINOMA” (OSI Pharmaceuticals, LLC, priority 2011, published 2012).

For one assay, the system named is tumor xenograft. To be noted: cited from earlier work.
Assay [1] has as its system HUH-1, JHH-5 and HepG2 cells. The assay can be described thus: Proliferation assay with OSI-906 after TGFβ treatment. It counts as cell-based, human. The note with it: cells grown with 10 ng/ml TGFβ for 10 days, HUH-1, JHH-5, HepG2. On the procedure: (§1) Proliferation Assay. Proliferation was assayed using Cell Titer Glo assays (Promega) and was determined 72 hours following dosing with OSI-906. The basis of the assay is a luminescent quantitation of ATP present in a cell culture plate well. In essence, the greater the number of viable cells in the well, the greater the level of ATP present. The assay utilizes a substrate that binds ATP to produce a luminescent signal, which can be read on a luminometer. Unless otherwise noted, the manufacturer's instructions were followed exactly. Briefly, on Day 1, cells were plated in 120 μl of 10% serum-containing growth media at a density of 4000 cells/well in a white polystyrene 96 well assay plate. On day 2, cells were treated with 15 μl of 10× concentration of the IGF-1R inhibitor (e.g. OSI-906) or DMSO alone for a final well volume of 150 μl. After 72 h incubation with the inhibitor, the cells were assayed. Results were calculated as a fraction of the DMSO controlled cells.

The subject of another assay is HLF. The assay can be described thus: Cell Titer-Glo proliferation assay, 72 h. The class given is cell-based. The note with it: Homo sapiens, HLF cells. As to the method:
(§2) Two sensitive epithelial cell lines Hep3B (A), JHH-7 (B), one insensitive epithelial cell line JHH-1(C) or one insensitive mesenchymal-like cell line HLF (D) were treated serial dilution of OSI-906 in the presence of Erlotinib for 72 hours, and sensitivity to treatment was measured by proliferation assays.
(§3) Cell lines: Twenty-one HCC cell lines were purchased from either ATCC (HepG2, Hep3B, PLC/PRF/5, SK-Hepl, SNU-182, SNU-387, SNU-398, SNU-423, SNU-449, SNU-475) or Health Science Research Resources Bank (Japan) (HUH-1, HUH-6, HUH-7, HLE, HLF, JHH-1, JHH-2, JHH-4, JHH-5, JHH-6, JHH-7). All the cell lines were maintained in media as described by the vendors. For growth inhibition assays, cells were plated and allowed to proliferate for 24 hours. After 24 hours, cells had reached approximately 15% confluency, at which time serial dilutions of OSI-906 were added and the cells grown for a further 72 hours. Cell viability was assayed using the Cell Titer-Glo reagent (Promega Corp., Madison, Wis.).
as §1

Another assay relates to JHH-7. As to the kind of experiment: Cell Titer-Glo proliferation assay, 72 h. The class given is cell-based. The note with it: Homo sapiens, JHH7, JHH-7 cells. On the procedure: as §2, §3, §1
A further assay deals with Hep 3B. As to the kind of experiment: Cell Titer-Glo proliferation assay, 72 h. It counts as cell-based. To be noted: Homo sapiens, Hep3B, Hep 3B cells. On the procedure: as §2, §3, §1
On the technique in general: ATP-based viability assays read luminescence as a measure of living cells.

For a further assay, the system named is JHH-1. As to the kind of experiment: Cell Titer-Glo proliferation assay, 72 h. It counts as cell-based. The note with it: Homo sapiens, JHH1, JHH-1 cells. On the procedure: as §2, §3, §1
In assay [2] the test system is HCC cell lines (HepG2, Hep3B, HUH-1, HUH-6, HUH-7, JHH-5, JHH-7). The assay can be described thus: Cell-titer glo proliferation assay, summary for the seven sensitive HCC cell lines. The class given is cell-based, human. On the procedure:
as §3
Proliferation Assay. Proliferation was assayed using Cell Titer Glo assays (Promega) and was determined 72 hours following dosing with OSI-906. The basis of the assay is a luminescent quantitation of ATP present in a cell culture plate well. […] The assay utilizes a substrate that binds ATP to produce a luminescent signal, which can be read on a luminometer. […] Results were calculated as a fraction of the DMSO controlled cells.
To test cell sensitivity of HCC cells to the IGF-1R kinase inhibitor OSI-906, twenty-one HCC cell lines were treated with different concentration of OSI-906, and cell proliferation was measured by cell-titer glo assays (FIG. 1). […]

The next assay has as its system JHH-2. As to the kind of experiment: Cell Titer-Glo proliferation assay, 72 h. It counts as cell-based. The note with it: Homo sapiens, JHH-2 cells. As to the method:
as §1, with “Cell lines: Twenty-one HCC cell lines were purchased from either ATCC (HepG2, Hep3B, PLC/PRF/5, SK-Hepl, SNU-182, SNU-387, SNU-398, SNU-423, SNU-449, SNU-475) or Health Science Research Resources Bank (Japan) (HUH-1, HUH-6, HUH-7, HLE, HLF, JHH-1, JHH-2, JHH-4, JHH-5, JHH-6, JHH-7). All the cell lines were maintained in media as described by the vendors. For growth inhibition assays, cells were plated and allowed to proliferate for 24 hours. After 24 hours, cells had reached approximately 15% confluency, at which time serial dilutions of OSI-906 were added and the cells grown for a further 72 hours. Cell viability was assayed using the Cell Titer-Glo reagent (Promega Corp., Madison, Wis.). Proliferation Assay.” for “Proliferation Assay.”

Read-outs that look alike come from different tables or passages of the source.

On to `C[C@]1(O)C[C@@H](c2nc(-c3ccc4ccc(-c5ccccc5)nc4c3)c3c(N)nccn32)C1` [OSI-906, cis-3-[8-amino-1-(2-phenyl-quinolin-7-yl)-imidazo[1,5-a]pyrazin-3-yl]-1-methyl-cyclobutanol], for which the entries for the “tumor growth inhibition (TGI)” value with tumor xenograft (xenografts of tumor cells with high sensitivity to OSI-906 in culture in vitro) and with tumor xenograft (xenografts of tumor cells with low sensitivity to OSI-906 in culture in vitro) were “high pencentage tumor growth inhibition” and “only a low pencentage tumor growth inhibition”, respectively. In addition, the “HCC cell sensitivity to OSI-906 after TGFβ treatment” value in assay [1] was “decreased”. Further, the inhibition (usually the change of the read-out against control, counted positive when it falls) at 5 µM with HLF (5 μM OSI-906, 72 h) was less than 40%; with JHH-7 (5 μM OSI-906, 72 h), 70%; in the assay on Hep 3B (5 μM OSI-906, 72 h), 67%; with JHH-1 (5 μM OSI-906, 72 h), less than 40%; with JHH-2 (5 μM OSI-906, 72 h) it was less than 40%. In addition, the EC50 (usually the midpoint of the concentration-response curve) is more than 10000 nM in the assay with HLF (72 h OSI-906); 940 nM with JHH-7 (72 h OSI-906); 350 nM with Hep 3B (72 h OSI-906); more than 10000 nM in the assay on JHH-1 (72 h OSI-906); less than 1000 nM in assay [2] (Homo sapiens); more than 10000 nM with JHH-2 (72 h OSI-906). In assay [2], this compound showed a maximum inhibition of more than 40%.
